Source: patent publication US9308182B2 (TEVA PHARMACEUTICAL INDUSTRIES, LTD., priority 2012, dated 2016)
Read-outs that look alike come from different tables or passages of the source.

Molecular target: MAO-B (Rattus norvegicus, UniProt P19643)
Test: in vivo
Settings: for MAO-B activity, brain / MAO-B activity, intestine / MAO-B activity, liver: two weeks; for inhibition at 0.02 mg/kg/day / inhibition at 0.4 mg/kg/day / inhibition at 0.8 mg/kg/day / inhibition at 0.05 mg/kg/day / inhibition at 0.1 mg/kg/day / inhibition at 0.2 mg/kg/day: rat
From the text: ALZET® osmotic minipumps are described in Perkins L, Peer C, and Murphy-Hackley P. “Chapter 21: The use of mini-osmotic pumps in continuous infusion studies” in Handbook of Pre-Clinical Continuous Intravenous Infusion, (Smith & Healing, eds., Taylor and Francis, 2000), the contents of which are incorporated herein by reference.
The osmotic minipumps were inserted subcutaneously with a single surgical procedure: after clipping the fur from the dorsal area and cleaning the skin with antiseptic skin preparation, about 1 cm long incision was made on the dorsum of the animal, midway between both scappulae. The pump was placed along the axis of the body to one side of the backbone. The incision was positioned about 1-2 cm caudal to the estimated caudal end of the minipump when it is in place.
After two weeks of treatment the animals were sacrificed. From each rat, brain (half) and a part of liver were dissected and frozen. The intestine was excised about ½ cm below the stomach about 1-2 cm long, washed with sucrose 0.32 Molar and frozen at −70° C.
Tissue homogenates were pre incubated (37° C.) in the presence of clorgyline or deprenyl to inhibit the activity of MAO-A or MAO-B respectively. For MAO-B determination, samples were incubated for 20 minutes with C^14 PEA 10 μM and for MAO-A determination samples were incubated 30 minutes with C^14 −5HT 100 μM as substrate Termination of the reaction was done by acidification. The labeled metabolites were extracted into toluene:ethyl acetate, and counted in a β counter.

[1] = po, read-out: Percent of MAO-B inhibition, brain
[2] = po, read-out: Percent of MAO-B inhibition, intestine
[3] = po, read-out: Percent of MAO-B inhibition, liver
[4] = sc, read-out: Percent of MAO-B inhibition, brain
[5] = sc, read-out: Percent of MAO-B inhibition, intestine
[6] = sc, read-out: Percent of MAO-B inhibition, liver

Sequence of MAO-B (P19643 whole entry): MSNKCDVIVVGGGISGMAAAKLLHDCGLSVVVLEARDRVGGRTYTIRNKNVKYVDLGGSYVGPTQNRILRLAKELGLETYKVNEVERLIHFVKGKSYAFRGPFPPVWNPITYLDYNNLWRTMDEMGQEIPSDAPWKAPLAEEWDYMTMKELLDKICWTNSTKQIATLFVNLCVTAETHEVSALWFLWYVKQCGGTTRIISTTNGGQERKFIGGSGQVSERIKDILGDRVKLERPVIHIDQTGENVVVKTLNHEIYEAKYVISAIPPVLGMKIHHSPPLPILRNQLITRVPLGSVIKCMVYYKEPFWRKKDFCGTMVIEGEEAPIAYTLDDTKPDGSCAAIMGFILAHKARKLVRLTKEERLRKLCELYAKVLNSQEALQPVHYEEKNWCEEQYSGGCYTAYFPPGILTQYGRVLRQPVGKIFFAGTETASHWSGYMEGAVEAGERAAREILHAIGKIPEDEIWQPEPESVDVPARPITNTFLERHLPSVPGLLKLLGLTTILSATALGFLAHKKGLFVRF

C#CCN[C@@H]1CCc2ccccc21 [rasagiline, R(+)-N-propargyl-l-aminoindan]
MAOB inhibition in the brain, ALZET pumps versus oral group (brain): No change | MAO-B activity, brain (brain, oral, 0.02 mg/kg/day (salt)): 1586 dpm | MAO-B activity, brain (brain, oral, 0.05 mg/kg/day (salt)): 494 dpm | MAO-B activity, brain (brain, oral, 0.1 mg/kg/day (salt)): 181 dpm | MAO-B activity, brain (brain, oral, 0.2 mg/kg/day (salt)): 69 dpm | MAO-B activity, brain (brain, oral, 0.4 mg/kg/day (salt)): 34 dpm | MAO-B activity, brain (brain, oral, 0.8 mg/kg/day (salt)): 9 dpm | MAO-B activity, brain (brain, sc ALZET pumps, 0.02 mg/kg/day (salt)): 1229 dpm | MAO-B activity, brain (brain, sc ALZET pumps, 0.05 mg/kg/day (salt)): 346 dpm | MAO-B activity, brain (brain, sc ALZET pumps, 0.1 mg/kg/day (salt)): 198 dpm | MAO-B activity, brain (brain, sc ALZET pumps, 0.2 mg/kg/day (salt)): 75 dpm | MAO-B activity, brain (brain, sc ALZET pumps, 0.4 mg/kg/day (salt)): 38 dpm | MAOB inhibition in the intestine and liver, ALZET pumps compared with oral administration (intestine and liver, daily dose of up to 0.1 mg/kg): lower | maximal MAO-B inhibition in the intestine (intestine, both routes (oral, ALZET pumps)): about 85% | MAO-B activity, intestine (intestine, oral, 0.02 mg/kg/day (salt)): 3633 dpm | MAO-B activity, intestine (intestine, oral, 0.05 mg/kg/day (salt)): 3115 dpm | MAO-B activity, intestine (intestine, oral, 0.1 mg/kg/day (salt)): 2493 dpm | MAO-B activity, intestine (intestine, oral, 0.2 mg/kg/day (salt)): 2424 dpm | MAO-B activity, intestine (intestine, oral, 0.4 mg/kg/day (salt)): 2108 dpm | MAO-B activity, intestine (intestine, oral, 0.8 mg/kg/day (salt)): 2105 dpm | MAO-B activity, intestine (intestine, sc ALZET pumps, 0.02 mg/kg/day (salt)): 8265 dpm | MAO-B activity, intestine (intestine, sc ALZET pumps, 0.05 mg/kg/day (salt)): 4346 dpm | MAO-B activity, intestine (intestine, sc ALZET pumps, 0.1 mg/kg/day (salt)): 3225 dpm | MAO-B activity, intestine (intestine, sc ALZET pumps, 0.2 mg/kg/day (salt)): 2391 dpm | MAO-B activity, intestine (intestine, sc ALZET pumps, 0.4 mg/kg/day (salt)): 1852 dpm | MAO-B activity, intestine (intestine, sc ALZET pumps, 0.8 mg/kg/day (salt)): 1879 dpm | MAO-B activity, liver (oral, 0.02 mg/kg/day (salt)): 1127 dpm | MAO-B activity, liver (oral, 0.05 mg/kg/day (salt)): 511 dpm | MAO-B activity, liver (oral, 0.1 mg/kg/day (salt)): 224 dpm | MAO-B activity, liver (oral, 0.2 mg/kg/day (salt)): 136 dpm | MAO-B activity, liver (oral, 0.4 mg/kg/day (salt)): 38 dpm | MAO-B activity, liver (sc ALZET pumps, 0.02 mg/kg/day (salt)): 1974 dpm | MAO-B activity, liver (sc ALZET pumps, 0.05 mg/kg/day (salt)): 912 dpm | MAO-B activity, liver (sc ALZET pumps, 0.1 mg/kg/day (salt)): 486 dpm | MAO-B activity, liver (sc ALZET pumps, 0.2 mg/kg/day (salt)): 312 dpm | MAO-B activity, liver (sc ALZET pumps, 0.4 mg/kg/day (salt)): 181 dpm | MAO-B activity, liver (sc ALZET pumps, 0.8 mg/kg/day (salt)): 166 dpm | inhibition at 0.02 mg/kg/day [1]: 83% | inhibition at 0.4 mg/kg/day [1]: 100% | inhibition at 0.8 mg/kg/day [1]: 100% | inhibition at 0.02 mg/kg/day [2]: 74% | inhibition at 0.05 mg/kg/day [2]: 78% | inhibition at 0.1 mg/kg/day [2]: 82% | inhibition at 0.2 mg/kg/day [2]: 83% | inhibition at 0.4 mg/kg/day [2]: 85% | inhibition at 0.8 mg/kg/day [2]: 85% | inhibition at 0.02 mg/kg/day [3]: 83% | inhibition at 0.05 mg/kg/day [3]: 92% | inhibition at 0.8 mg/kg/day [3]: 100% | inhibition at 0.4 mg/kg/day [4]: 100% | inhibition at 0.8 mg/kg/day [4]: 100% | inhibition at 0.02 mg/kg/day [5]: 37% | inhibition at 0.05 mg/kg/day [5]: 67% | inhibition at 0.1 mg/kg/day [5]: 76% | inhibition at 0.2 mg/kg/day [5]: 82% | inhibition at 0.4 mg/kg/day [5]: 86% | inhibition at 0.8 mg/kg/day [5]: 86% | inhibition at 0.02 mg/kg/day [6]: 67% | inhibition at 0.05 mg/kg/day [6]: 85% | inhibition at 0.1 mg/kg/day [6]: 92%
